Test results published in patent publication US20070264354A1, “TREATMENT OF A WOUND WITH A VASODILATOR” (priority 2006, published 2007).
Where no end group is shown, it is not given here.

How the values were obtained:
[1] = test system: capsaicin-sensitive cutaneous nerves (small sensory fibers); assay: Acute topical capsaicin-induced cutaneous blood flow by laser Doppler flowmetry; type: in vivo, human
[2] = test system: capsaicin-sensitive cutaneous nerves (small sensory fibers); assay: Heat-step heat pain threshold after acute topical capsaicin (primary hyperalgesia); type: in vivo, human
Method: In the heat-step procedure, basal blood flow was monitored at resting skin temperature and later at 32° C. The temperature was raised in increments of 2° C. per minute until a maximum temperature value of 48° C. was reached. Sensory responses (specifically, heat pain threshold, HPT) and peak net flows at each increment were documented. A second heat-step test followed an acute application of topical capsaicin to the skin to measure sensitization by HPT, i.e., primary hyperalgesia. Two normal and obese subjects complained that the pungency from the capsaicin was extreme and, as a consequence, the heat-step test for hyperalgesia was not conducted.

[3] = test system: capsaicin-sensitive cutaneous nerves (small sensory fibers); assay: Capsaicin-induced pungency (quality of sensation); type: in vivo, human
Method: Topical Capsaicin: Capsaicin, 8-methyl-N-vanillyl-6-nonenamide, is a vanilloid neurotoxin that targets somatic small primary afferent neurons. Capsaicin (1% in 75% ethanol, 25% saline) was applied topically for 45 minutes through a central chamber (300 μl capacity, 1 cm diameter) in a clear circular plastic perspex adhered to the skin. Throughout the application, perceptual responses and peak flow values were obtained. The vehicle was applied at different skin sites to 6 normal subjects.

[4] = test system: capsaicin-sensitive cutaneous nerves (small sensory fibers); assay: Capsaicin-induced desensitization (Cap-D); type: in vivo, human
Method: Capsaicin-Induced Desensitization: Eight (8) normal subjects were recruited to ascertain the degree of capsaicin sensitivity of each of the tests described above. Each subject applied topical capsaicin to one forearm and thigh, and the vehicle to the opposing limb in 45 minute applications, 3-4 times daily for 5 days.

NOS = conditions: animals (Isenberg et al, 2005); cited from earlier work
diabetic wounds = conditions: cited from earlier work
wound areas = conditions: 50 ul of 110 ug/ml solution topically (Li et al, 1980); cited from earlier work
leukocyte chemotaxis = conditions: subdermal air sacs, mice (Lawman et al, 1985); cited from earlier work
venous stasis ulcers = conditions: CGRP and VIP given together by iontophoresis (Gherardini et al, 1998b); cited from earlier work

Compound: COc1cc(CNC(=O)CCCCC=CC(C)C)ccc1O [Capsaicin, 8-methyl-N-vanillyl-6-nonenamide]
- Capsaicin Latency, Indirect, Normal, Mean ([1]; latency to flare, indirect site, normal subjects): 12 min
- Capsaicin Latency, Indirect, Obese, Mean ([1]; latency to flare, indirect site, obese subjects): 26 min
- Capsaicin Latency, Direct, Normal, Mean ([1]; latency to vasodilatory response, direct site, normal subjects): 11 min
- Capsaicin Latency, Direct, Obese, Mean ([1]; latency to vasodilatory response, direct site, obese subjects): 21 min
- Capsaicin Flux, Direct, Normal, Mean ([1]; net peak flux, direct flow site, 1% topical capsaicin 45 min, forearm, normal subjects): 299 AU
- Capsaicin Flux, Direct, Obese, Mean ([1]; net peak flux, direct flow site, 1% topical capsaicin 45 min, forearm, obese subjects): 159 AU
- Capsaicin Flux, Indirect, Normal, Mean ([1]; net peak flux, indirect flow (flare) site, 1% topical capsaicin 45 min, normal subjects): 257 AU
- Capsaicin Flux, Indirect, Obese, Mean ([1]; net peak flux, indirect flow (flare) site, 1% topical capsaicin 45 min, obese subjects): 128 AU
- Heat Step HPT Post-Cap - Hyperalgesia, Normal, Mean ([2]; after acute topical capsaicin, normal subjects): 37.1 °C
- Heat Step HPT Post-Cap - Hyperalgesia, Obese, Mean ([2]; after acute topical capsaicin, obese subjects): 39.8 °C
- fall in the HPT, average ([2]; both normal and obese groups, p<0.001): ~7 C
- share of population with pronounced hyperalgesic response ([2]; normal population, n=11/13): ~90%
- share of population with pronounced hyperalgesic response ([2]; obese population, n=43/53): Approximately 80%
- capsaicin-induced pungency level ([3]; normal subjects): 90%
- share perceiving burn/pain ([3]; normal subjects): approximately 80%
- share reporting a stinging/prickly sensation ([3]; normal subjects): 20%
- capsaicin-induced pungency level ([3]; obese subjects): 45%
- heat-induced flux in heat-ramp test after Cap-D ([4]; direct and indirect flow, versus vehicle): decreased significantly
- dose (mC)-response (flux) curve to transcutaneous electrical stimulation after Cap-D ([4]; indirect site): abolished neurogenic flare
- blood flow on acute capsaicin challenge after Cap-D ([4]; normal subjects n=8): virtually no increased blood flow
- pungency on acute capsaicin challenge after Cap-D ([4]; normal subjects n=8): no pungency
- HPT after capsaicin-induced desensitization ([4]; topical capsaicin 3-4 times daily for 5 days, normal subjects n=8, maximum temperature utilized): > 48 °C

Compound: COC(=O)[C@@H](N)CCCNC(=N)N[N+](=O)[O-] [L-NAME]
- vessel diameter and blood flow in skin flaps (NOS): marked decreases in vessel diameter and blood flow

Compound: N=C(N)NCCC[C@H](N)C(=O)O [LA, L-Arginine]
- wound healing (diabetic wounds; diabetic rats (Shi et al)): improve wound healing
- wound NOx levels (diabetic wounds; diabetic wounds (Shi et al)): increased NOx levels to normal values

Compound: NGF: Nerve growth factor, instrumental in the synthesis of sensory neuropeptides in the DRG
- wound healing (wound areas): markedly accelerated healing
- leukocyte chemotaxis (leukocyte chemotaxis): significantly increased leukocyte chemotaxis

Compound: VIP: Vasoactive Intestinal Polypeptide, peptide released by C-fibers (HSDAVFTDNYTRLRKQMAVKKYLNSILN; ends and bridges not checked; UniProt P01282 125-152, looked up)
- healing of venous stasis ulcers (venous stasis ulcers): improved healing of venous stasis ulcers
